# Values joined by “and” are separate entries in the source; they are usually repeats but may differ in a detail not shown here. Identical values can stand only once. Inconclusive results and toxic doses are left out.
# Test system: P388 leukemia ip, CD2F1 mice, survival T/C
# Test: NCI In Vivo Anticancer Drug Screen. Data for tumor model P388 Leukemia (intraperitoneal) in CD2F1 (CDF1) mice
# Details: endpoint: median survival time, higher = longer survival
# Procedure, shortened: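 Mice carrying the transplanted tumor received test compound or vehicle. Survival was recorded in each group, and the value is the treated-group measurement divided by that of the vehicle-treated control group.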
# [1] = dose: 12.5 mg/kg/injection, schedule: Q01DX009 (ip), vehicle: saline with Tween-80
# [2] = dose: 25.0 mg/kg/injection, schedule: Q01DX009 (ip), vehicle: saline with Tween-80
# [3] = dose: 100.0 mg/kg/injection, schedule: Q01DX009 (ip), vehicle: saline with Tween-80
# [4] = dose: 25.0 mg/kg/injection, schedule: Q01DX005 (ip), vehicle: saline
# [5] = dose: 12.5 mg/kg/injection, schedule: Q01DX009 (ip), vehicle: water
# [6] = dose: 60.0 mg/kg/injection, schedule: Q01DX005 (ip), vehicle: Klucel (hydroxypropylcellulose) (HPC)
# [7] = dose: 120.0 mg/kg/injection, schedule: Q01DX005 (ip), vehicle: Klucel (hydroxypropylcellulose) (HPC)
# [8] = dose: 50.0 mg/kg/injection, schedule: Q01DX009 (ip), vehicle: saline
# [9] = dose: 240.0 mg/kg/injection, schedule: Q01DX005 (ip), vehicle: saline with Tween-80
# [10] = dose: 50.0 mg/kg/injection, schedule: Q01DX005 (ip), vehicle: saline with Tween-80
# [11] = dose: 100.0 mg/kg/injection, schedule: Q01DX005 (ip), vehicle: saline with Tween-80
# [12] = dose: 200.0 mg/kg/injection, schedule: Q01DX005 (ip), vehicle: saline with Tween-80
structure (smiles),measurement,setting,value
CCCCCCCCCCCCCCCCC(C(=O)O)C(O)(CC(=O)O)C(=O)O (stereo not given),T/C,"dose: 8.75 mg/kg/injection, schedule: Q01DX009 (ip), vehicle: Klucel (hydroxypropylcellulose) (HPC)",95 % of control
same,T/C,[1],91 % of control
same,T/C,"dose: 17.5 mg/kg/injection, schedule: Q01DX009 (ip), vehicle: Klucel (hydroxypropylcellulose) (HPC)",101 % of control
same,T/C,[2],94 % of control
same,T/C,"dose: 35.0 mg/kg/injection, schedule: Q01DX009 (ip), vehicle: Klucel (hydroxypropylcellulose) (HPC)",95 % of control
same,T/C,"dose: 70.0 mg/kg/injection, schedule: Q01DX009 (ip), vehicle: Klucel (hydroxypropylcellulose) (HPC)",87 % of control
same,T/C,[3],90 % of control
CCOc1cc2cc(/C=N/OCC3CO3)c(Cl)nc2cc1OCC (stereo not given),T/C,"dose: 50.0 mg/kg/injection, schedule: Q01DX005 (ip), vehicle: suspension in saline",92 % of control
same,T/C,"dose: 100.0 mg/kg/injection, schedule: Q01DX005 (ip), vehicle: suspension in saline",92 % of control
same,T/C,"dose: 200.0 mg/kg/injection, schedule: Q01DX005 (ip), vehicle: suspension in saline",90 % of control
CN1CCCCC1Cc1ccccc1 (stereo not given),T/C,"dose: 6.25 mg/kg/injection, schedule: Q01DX005 (ip), vehicle: saline",103 % of control
same,T/C,"dose: 12.5 mg/kg/injection, schedule: Q01DX005 (ip), vehicle: saline",102 % of control
same,T/C,[4],100 % of control
O=[N+]([O-])c1ccc(N/N=C/c2ccnc3ccccc23)cc1,T/C,"dose: 100.0 mg/kg/injection, schedule: Q01DX009 (ip), vehicle: Klucel (hydroxypropylcellulose) (HPC)",95 % of control
same,T/C,"dose: 200.0 mg/kg/injection, schedule: Q01DX009 (ip), vehicle: Klucel (hydroxypropylcellulose) (HPC)",86 % of control
same,T/C,"dose: 400.0 mg/kg/injection, schedule: Q01DX009 (ip), vehicle: Klucel (hydroxypropylcellulose) (HPC)",95 % of control
COc1cccc2c1C(=O)c1c(O)c3c(c(O)c1C2=O)C[C@@](O)(C(=O)CSc1ccccc1)C[C@@H]3OC1CC(N)C(O)C(C)O1 (stereo not given in full),T/C,"dose: 0.78 mg/kg/injection, schedule: Q01DX009 (ip), vehicle: water",122 % of control
same,T/C,[5],99 % of control and 91 % of control
CCC(=O)N1C(=O)C(C)C23c4cc(OC)c(OC)cc4C(=O)N2CCCN13 (stereo not given),T/C,[6],100 % of control
same,T/C,[7],94 % of control
same,T/C,"dose: 240.0 mg/kg/injection, schedule: Q01DX005 (ip), vehicle: Klucel (hydroxypropylcellulose) (HPC)",90 % of control
O=C1NNCc2c1oc1ccccc21,T/C,"dose: 6.25 mg/kg/injection, schedule: Q01DX009 (ip), vehicle: saline with Tween-80",95 % of control
same,T/C,[1],92 % of control
same,T/C,[2],99 % of control
CS(=O)(=O)C12CCCN1C(=O)C1CCCN1C2=O (stereo not given),T/C,[8],99 % of control
same,T/C,"dose: 100.0 mg/kg/injection, schedule: Q01DX009 (ip), vehicle: saline",102 % of control
same,T/C,"dose: 200.0 mg/kg/injection, schedule: Q01DX009 (ip), vehicle: saline",90 % of control
C=CC1=NC(C)(C)CC(C)O1 (stereo not given),T/C,"dose: 1.56 mg/kg/injection, schedule: Q01DX009 (ip), vehicle: water",104 % of control
same,T/C,"dose: 3.13 mg/kg/injection, schedule: Q01DX009 (ip), vehicle: water",107 % of control
same,T/C,"dose: 6.25 mg/kg/injection, schedule: Q01DX009 (ip), vehicle: water",116 % of control
same,T/C,[5],109 % of control
Cc1ccc(S(=O)(=O)CC(=O)CC(=O)C(=O)Nc2ccc(Cl)cc2Cl)cc1,T/C,"dose: 60.0 mg/kg/injection, schedule: Q01DX005 (ip), vehicle: saline with Tween-80",100 % of control
same,T/C,"dose: 120.0 mg/kg/injection, schedule: Q01DX005 (ip), vehicle: saline with Tween-80",100 % of control
same,T/C,[9],100 % of control
COc1ccc2[nH]c3c(c2c1)C(=O)c1ccncc1C3=O,T/C,"dose: 37.5 mg/kg/injection, schedule: Q04DX002 (ip), vehicle: Klucel (hydroxypropylcellulose) (HPC)",87 % of control
same,T/C,"dose: 75.0 mg/kg/injection, schedule: Q04DX002 (ip), vehicle: Klucel (hydroxypropylcellulose) (HPC)",91 % of control
O=C1NCC(CCl)O1 (stereo not given),T/C,"dose: 60.0 mg/kg/injection, schedule: Q01DX005 (ip), vehicle: saline",100 % of control
same,T/C,"dose: 120.0 mg/kg/injection, schedule: Q01DX005 (ip), vehicle: saline",101 % of control
same,T/C,"dose: 240.0 mg/kg/injection, schedule: Q01DX005 (ip), vehicle: saline",102 % of control
C1=C2OCOC2=CC2Cc3cc4c(cc3/C=C3\CC5=C(C=C3/C=C/12)OCO5)OCO4 (stereo not given),T/C,[10],92 % of control
same,T/C,[11],93 % of control
same,T/C,[12],98 % of control
FC(F)(F)c1ccccc1NC(=S)SCc1ccc2c(c1)OCO2,T/C,"dose: 12.5 mg/kg/injection, schedule: Q01DX009 (ip), vehicle: saline",97 % of control
same,T/C,"dose: 25.0 mg/kg/injection, schedule: Q01DX009 (ip), vehicle: saline",90 % of control
same,T/C,[8],100 % of control
CCOC(=O)c1cnn(C)c1N,T/C,"dose: 66.7 mg/kg/injection, schedule: Q01DX009 (ip), vehicle: saline with Tween-80",97 % of control
same,T/C,[3],110 % of control
same,T/C,"dose: 150.0 mg/kg/injection, schedule: Q01DX009 (ip), vehicle: saline with Tween-80",105 % of control
CC(=O)NC1CCCCC1[Se](=O)c1ccccc1 (stereo not given),T/C,[10],108 % of control
same,T/C,[11],100 % of control
same,T/C,[12],109 % of control
CSC(=S)SC(SC)S(C)(=O)=O (stereo not given),T/C,"dose: 3.12 mg/kg/injection, schedule: Q01DX009 (ip), vehicle: Klucel (hydroxypropylcellulose) (HPC)",103 % of control
same,T/C,"dose: 6.25 mg/kg/injection, schedule: Q01DX009 (ip), vehicle: Klucel (hydroxypropylcellulose) (HPC)",112 % of control
same,T/C,"dose: 12.5 mg/kg/injection, schedule: Q01DX009 (ip), vehicle: Klucel (hydroxypropylcellulose) (HPC)",110 % of control and 117 % of control
same,T/C,"dose: 25.0 mg/kg/injection, schedule: Q01DX009 (ip), vehicle: Klucel (hydroxypropylcellulose) (HPC)",93 % of control
CN1OC(=O)OC(C)(c2ccccc2)C1=O (stereo not given),T/C,[10],98 % of control
same,T/C,[11],97 % of control
same,T/C,[12],97 % of control
COc1ccc2c(c1)CCC(C(O)C1(Sc3c(OC)cccc3OC)CC1)C2=O (stereo not given),T/C,[10],100 % of control
same,T/C,[11],100 % of control
same,T/C,[12],100 % of control
O=[N+]([O-])c1ccc(C2=Nc3ccccc3N=C(c3ccccc3O)C2)cc1,T/C,"dose: 0.93 mg/kg/injection, schedule: Q01DX005 (ip), vehicle: saline with Tween-80",100 % of control
same,T/C,"dose: 1.87 mg/kg/injection, schedule: Q01DX005 (ip), vehicle: saline with Tween-80",113 % of control
same,T/C,"dose: 3.75 mg/kg/injection, schedule: Q01DX005 (ip), vehicle: saline with Tween-80",91 % of control and 94 % of control
same,T/C,"dose: 15.0 mg/kg/injection, schedule: Q01DX005 (ip), vehicle: saline with Tween-80",91 % of control
same,T/C,[9],90 % of control
Cc1n[nH]c(=O)n(/N=C/c2ccc(N(C)C)cc2)c1=O,T/C,[6],98 % of control
same,T/C,[7],97 % of control
COC1=C(N)C(=O)c2cccnc2C1=O,T/C,"dose: 3.13 mg/kg/injection, schedule: Q01DX009 (ip), vehicle: DMSO",92 % of control
same,T/C,"dose: 6.25 mg/kg/injection, schedule: Q01DX009 (ip), vehicle: DMSO",92 % of control
same,T/C,"dose: 12.5 mg/kg/injection, schedule: Q01DX009 (ip), vehicle: DMSO",100 % of control
same,T/C,"dose: 25.0 mg/kg/injection, schedule: Q01DX009 (ip), vehicle: DMSO",109 % of control
CC1CC(C)(C)CC2(C1)OCC(CCl)O2 (stereo not given),T/C,"dose: 25.0 mg/kg/injection, schedule: Q01DX001 (ip), vehicle: saline with Tween-80",109 % of control
same,T/C,"dose: 50.0 mg/kg/injection, schedule: Q01DX001 (ip), vehicle: saline with Tween-80",104 % of control
same,T/C,"dose: 100.0 mg/kg/injection, schedule: Q01DX001 (ip), vehicle: saline with Tween-80",109 % of control
CN(/N=C1\C(=O)Nc2ccccc21)c1ccccc1,T/C,[10],95 % of control
same,T/C,[11],93 % of control
same,T/C,[12],88 % of control
Cn1nnc2c(C(N)=O)ncn2c1=O,T/C,"dose: 25.0 mg/kg/injection, schedule: Q01DX005 (ip), vehicle: saline with Tween-80",118 % of control
same,T/C,[4],119 % of control and 121 % of control
same,T/C,[11],189 % of control
same,T/C,"dose: 100.0 mg/kg/injection, schedule: Q01DX005 (ip), vehicle: saline",164 % of control and 217 % of control
same,T/C,[12],254 % of control
same,T/C,"dose: 200.0 mg/kg/injection, schedule: Q01DX005 (ip), vehicle: saline",225 % of control and 87 % of control
O=c1c(=O)c2cc(O)ccc12,T/C,[10],109 % of control
same,T/C,[11],105 % of control
same,T/C,[12],100 % of control
COc1cc(NC(=O)SC2=NCCS2)cc(OC)c1,T/C,"dose: 50.0 mg/kg/injection, schedule: Q01DX009 (ip), vehicle: saline with Tween-80",107 % of control
same,T/C,[3],110 % of control
same,T/C,"dose: 200.0 mg/kg/injection, schedule: Q01DX009 (ip), vehicle: saline with Tween-80",100 % of control

# Source: PubChem BioAssay AID330 (DTP/NCI, 2004)
